How the values were obtained:
Assay in all cases: ITC
Details in all cases: Na+ 100 mM (NaCl), Mg2+ 5 mM (MgCl2); 5 mM MES, pH 5.5; aptamer on Au nanoparticle (20 µM aptananozyme in cell)
[1] = tested on: aptananozyme II ((2)-modified pA-AuNPs) (DNA, aptamer) GTAACAACAGTCAAAAAAAAAAAAAAAAAAAAGACTGTTGTTACCGACGCCAGTTTGAAGGTTCGTTCGCAGGTGTGGAGTGACGTCG
[2] = tested on: aptananozyme IV ((4)-modified pA-AuNPs) (DNA, aptamer) GTAACAACAGTCAAAAAAAAAAAAAAAAAAAAGACTGTTGTTACTGTATGTACGACGCCAGTTTGAAGGTTCGTTCGCAGGTGTGGAGTGACGTCG
[3] = tested on: aptananozyme V ((5)-modified pA-AuNPs) (DNA, aptamer) GTAACAACAGTCAAAAAAAAAAAAAAAAAAAAGACTGTTGTTACTGTATGTATGTACGACGCCAGTTTGAAGGTTCGTTCGCAGGTGTGGAGTGACGTCG
[4] = tested on: aptananozyme III ((3)-modified pA-AuNPs) (DNA, aptamer) GTAACAACAGTCAAAAAAAAAAAAAAAAAAAAGACTGTTGTTACTGTACGACGCCAGTTTGAAGGTTCGTTCGCAGGTGTGGAGTGACGTCG
[5] = tested on: aptananozyme I ((1)-modified pA-AuNPs) (DNA, aptamer) CGACGCCAGTTTGAAGGTTCGTTCGCAGGTGTGGAGTGACGTCGGTAACAACAGTCAAAAAAAAAAAAAAAAAAAAGACTGTTGTTAC

Kd [1]	Kd [2]	Kd [3]	Kd [4]	Kd [5]	SMILES
1200 ± 60 nM	760 ± 30 nM	930 ± 50 nM	950 ± 40 nM	1650 ± 30 nM	NCCc1ccc(O)c(O)c1
	4200 nM				N[C@@H](Cc1ccc(O)c(O)c1)C(=O)O
	11300 nM				N[C@H](Cc1ccc(O)c(O)c1)C(=O)O

Source: paper PMC9706657 (2022)
